Measurements from article PMC11847541, “Liver fatty acid binding protein FABP1 transfers substrates to cytochrome P450 4A11 for catalysis” (The Journal of Biological Chemistry, 2025).

Molecular target: T1, P450 4A11 (Homo sapiens, UniProt Q02928)
T1 sequence (Q02928 5-519): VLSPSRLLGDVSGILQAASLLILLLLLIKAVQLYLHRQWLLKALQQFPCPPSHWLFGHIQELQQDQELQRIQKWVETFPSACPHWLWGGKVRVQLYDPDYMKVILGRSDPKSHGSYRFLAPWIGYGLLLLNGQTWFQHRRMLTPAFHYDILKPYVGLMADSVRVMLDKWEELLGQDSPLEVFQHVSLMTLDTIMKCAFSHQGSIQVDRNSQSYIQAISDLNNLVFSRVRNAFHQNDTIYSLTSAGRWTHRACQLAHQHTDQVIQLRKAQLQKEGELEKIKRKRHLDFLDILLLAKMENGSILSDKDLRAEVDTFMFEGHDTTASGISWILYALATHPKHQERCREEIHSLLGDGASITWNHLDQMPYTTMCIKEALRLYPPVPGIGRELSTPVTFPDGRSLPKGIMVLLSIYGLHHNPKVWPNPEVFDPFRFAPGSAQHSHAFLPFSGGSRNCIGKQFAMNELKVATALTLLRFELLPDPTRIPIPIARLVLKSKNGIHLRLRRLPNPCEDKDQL
Assay: Ketoconazole trap experiment for lipid koff from P450 4A11
Type: binding
Set-up: made in house; host or cells: E. coli
Procedure: To assess the rates of lipid egress from P450 4A11 (k-1, k-3), lipids were tested in conjunction with the general P450 inhibitor ketoconazole in a “trap experiment” as we have recently described to estimate koff rates for P450–sterol complexes ([27], [28]). P450–lipid complexes were rapidly mixed with ketoconazole, and the spectral shift from 390 nm (substrate bound, type I) to 418 nm (inhibitor bound, type II) P450 was monitored over time (Fig. 9A, progression from blue to red curve). This spectral shift arises from the direct interaction of the azole nitrogen lone pair with the heme iron (forming a hexacoordinated heme species). This experiment is performed with an excess of ketoconazole (100 μM) to facilitate rapid capture of unliganded P450 yielded at the moment of lipid dissociation, such that ketoconazole kon approximates the lipid koff.
(The concentration of lipid added during preincubation reflects the affinity of the complex determined in equilibrium binding titrations; Fig. 8). The first phase of each trace relates to the ketoconazole capture of the unliganded enzyme (the majority–but not all–P450 was substrate bound at equilibrium), and the second phase correlates to the capture of enzyme yielded by the egress of the bound lipid (i.e., estimate of koff). […] The rates extracted for the second phase (koff) were 0.070 ± 0.006 s^−1 (k-3) and 0.20 ± 0.01 s^−1 (k-1), respectively.
Determination of P450 4A11 koff rates with lipids was performed using a ketoconazole “trap” experiment by adapting previously published protocols ([27], [28]). Solutions of (A) ketoconazole (200 μM) and (B) P450 4A11 (4 μM) and either palmitate (20 μM) or 16-OH palmitate (8 μM) were prepared (2 ml each, all in 100 mM potassium phosphate buffer [pH 7.4]) and loaded into the drive syringes of an OLIS stopped-flow spectrophotometer with the same procedure described for the P450 4A11 kon determination (aforementioned). The experiment was initiated by mixing equal volumes of each solution together, and the rate of ketoconazole binding to P450 is given by ΔA418-A390 (displacement of lipid [decrease in A390] because of ketoconazole binding [increase in A418]) and is a maximum value for the rate at which the P450–lipid complex dissociated (koff) (Fig. S14).
Figure S14. Absorbance traces used to determine P450 4A11 palmitate koff rate. The basis of the ketoconazole trap experiment is the spectral transition from substrate-bound (“Type I” shift, A390 (blue trace)) to inhibitor-bound (“Type II” shift, A418 (red trace)) P450 (Fig. 9A). The formation of ketoconazole-bound P450 (inhibitor complex) from palmitate-bound P450 (substrate complex) is over the course of the experiment shown above. The rate of formation of inhibitor-bound P450 is subtracted from the rate of decay of substrate-bound P450, and the resulting plot (Fig. 9D) is fit to a biexponential equation to estimate the dissociation rate (koff) of palmitate from the P450 4A11.

[1] = P450 4A11 2 μM preincubated with lipid, ketoconazole 100 μM

Compound	first phase rate (k1), ketoconazole capture of unliganded enzyme [1] [s⁻¹]	koff (P450 4A11 2 μM preincubated with lipid, ketoconazole 100 μM, read-out: second phase rate = koff from P450 4A11) [s⁻¹]	Kd (quotient of experimentally determined rates, read-out: Kd estimate for P450 4A11 as koff/kon) [µM]	second phase rate = koff from P450 4A11 [1]	kon to P450 4A11 (k3) (calculated from koff and Kd)
CCCCCCCCCCCCCCCC(=O)O [Palmitate (C16), palmitate]	2.9 ± 0.1	0.2 ± 0.01	4.8		
O=C(O)CCCCCCCCCCCCCCCO [16-OH Palmitate (C16), 16-hydroxypalmitate]	1.3 ± 0.4			0.070 ± 0.006 (k-3) s^−1	2.6 × 10^5 (k3) M^−1 s^−1
